{
  "source": "patent US20070248995A1",
  "about": "“Molecules” (priority 2004, published 2007)",
  "key": {"rat NK1r": {"molecular_target": "T1, rat NK1r (Rattus norvegicus, UniProt P14600)", "T1 construct": "expressed in transfected cells", "T1 sequence (P14600 whole entry)": "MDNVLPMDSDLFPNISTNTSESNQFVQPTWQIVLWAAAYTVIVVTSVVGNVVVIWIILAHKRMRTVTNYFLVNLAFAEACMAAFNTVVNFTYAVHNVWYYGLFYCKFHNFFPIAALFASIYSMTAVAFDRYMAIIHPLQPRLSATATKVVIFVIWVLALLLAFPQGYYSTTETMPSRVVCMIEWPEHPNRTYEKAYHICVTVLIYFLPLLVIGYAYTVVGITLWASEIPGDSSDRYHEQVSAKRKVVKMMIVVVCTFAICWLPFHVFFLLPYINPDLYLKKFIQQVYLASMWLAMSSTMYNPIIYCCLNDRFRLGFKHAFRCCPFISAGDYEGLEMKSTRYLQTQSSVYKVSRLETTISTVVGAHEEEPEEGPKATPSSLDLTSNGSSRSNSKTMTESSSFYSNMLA", "experiment": "Inhibition of NK1 receptor activation, intracellular Ca2+ mobilization (FLIPR) in CHO cells", "format": "cell-based", "conditions": "pKB ± SD, submaximal (60%) concentration of Substance P", "method": "(§1) The activity of a compound to inhibit NK1r activation measured as NK1r-mediated increase in intracellular Ca^2+ was assessed by the following procedure:\n(§2) Before the FLIPR assay the cells of each 96-well plate were loaded with the Ca^2+-sensitive dye Fluo-3 (TEFLABS 0116) at 4 μM in a loading media consisting of Nut Mix F12 (HAM) with Glutamax I, 22 mM HEPES, 2.5 mM Probenicid (Sigma P-8761) and 0.04% Pluronic F-127 (Sigma P-2443) and kept in the dark for 1 hour in a 37° C. CO2-incubator. The cells were then washed three times in assay buffer (Hanks balanced salt solution (HBSS) containing 20 mM HEPES, 2.5 mM Probenicid and 0.1% BSA) using a multi-channel pipette leaving them in 150 μl at the end of the last wash. Serial dilutions of a test compound in assay buffer (final DMSO concentration kept below 1%) were automatically pipetted by FLIPR (Fluorometric Imaging Plate Reader) into each test well and the fluorescence intensity was recorded (excitation 488 nm and emission 530 nm) by the FLIPR CCD camera for a 2-min pre-incubation period. 50 μl of the Substance P (NK1 specific), NKA (NK2 specific), or Pro-7-NKB (NK3 specific) agonist solution (final concentration equivalent to an approximate EC60 concentration) was then added by FLIPR into each well already containing 200 μl assay buffer (containing the test compound or vehicle) and the fluorescence was continuously monitored for another 2 min. The response was measured as the peak relative fluorescence after agonist addition and IC50s were calculated from ten-point concentration-response curves for each compound. The IC50s were then converted to pKB values with the following formula: KB=IC50/1+(EC60 conc. of agonist used in assay/EC50 agonist) pKB=−log KB Binding Assay for NK1 Receptors"}, "gerbil NK1r [1]": {"molecular_target": "T2, gerbil NK1r (Meriones unguiculatus, UniProt Q5DUB1)", "T2 sequence (Q5DUB1 whole entry)": "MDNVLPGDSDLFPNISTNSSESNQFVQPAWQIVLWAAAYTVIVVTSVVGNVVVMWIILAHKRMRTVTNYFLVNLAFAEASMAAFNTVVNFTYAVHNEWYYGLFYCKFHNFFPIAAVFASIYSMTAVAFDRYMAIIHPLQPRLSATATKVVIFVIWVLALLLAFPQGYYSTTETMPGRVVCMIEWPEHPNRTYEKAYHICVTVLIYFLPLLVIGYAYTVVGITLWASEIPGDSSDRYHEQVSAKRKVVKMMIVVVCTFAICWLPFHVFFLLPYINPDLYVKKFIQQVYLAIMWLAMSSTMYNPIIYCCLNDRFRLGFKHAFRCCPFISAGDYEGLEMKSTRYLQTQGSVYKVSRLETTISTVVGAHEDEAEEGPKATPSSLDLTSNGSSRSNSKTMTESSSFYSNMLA", "experimental": "Cells were detached with Accutase® solution, harvested in PBS containing 5% FBS by centrifugation, washed twice in PBS and resuspended to a concentration of 1×10^8 cells/ml in Tris-HCl 50 mM, KCl 300 mM, EDTA-N2 10 mM pH 7.4 (4° C.). Cell suspensions were homogenized with a UltraTurrax 30 s 12.000 rpm. The homogenates were centrifuged at 38,000×g (4° C.) and the pellet resuspended in Tris-HCl 50 mM pH 7.4. The homogenization was repeated once and the homogenates were incubated on ice for 45 min. The homogenates were again centrifuged as described above and resuspended in Tris-HCl 50 mM pH 7.4. This centrifugation step was repeated 3 times in total. After the last centrifugation step the pellet was resuspended in Tris-HCl 50 mM and homogenized with Dual Potter, 10 strokes to a homogenous solution, and aliquots were removed for protein determination. Membranes were aliquoted and frozen at −80° C. until use.\nThe radioligand binding assay was performed at room temperature in 96-well microtiter plates (No-binding Surface Plates, Corning 3600) with a final assay volume of 200 μl/well in incubation buffer (50 mM Tris buffer (pH 7.4 RT) containing 0.1% BSA, 40 mg/L Bacitracin, complete EDTA-free protease inhibitor cocktail tablets 20 pills/L (Roche) and 3 mM MnCl2).\nCompetition binding curves were done by adding increasing amounts of the test compound. […]\n(§3) The membranes were then collected by rapid filtration on Filtermat B(Wallac), presoaked in 0.1% BSA and 0.3% Polyethyleneimine (Sigma P-3143), using a Micro 96 Harvester (Skatron Instruments, Norway). […] Meltilex scintillator sheets were melted on to filters using a Microsealer (Wallac, Finland) and the filters were counted in a β-Liquid Scintillation Counter (1450 Microbeta, Wallac, Finland).\n(§4) The Ki value for the unlabeled ligand was calculated using the Cheng-Prusoff equation (Biochem. Pharmacol. 22:3099-3108, 1973), where L is the concentration of the radioactive ligand used and Kd is the affinity of the radioactive ligand for the receptor, determined by saturation binding. […]"}, "gerbil NK1r [2]": {"molecular_target": "T2, gerbil NK1r", "experiment": "Gerbil foot tap (GFT, NK1r-specific test model)", "format": "in vivo, Mongolian gerbil", "parameters": "tissue Charles River, Germany (animals); host or cells: living Mongolian gerbil, central nervous system (in vivo)", "conditions": "from brain homogenate concentration of antagonist at 50% inhibition, used in the Cheng-Prusoff equation", "text": "Male Mongolian gerbils (60-80 g) were purchased from Charles River, Germany. On arrival, they were housed in groups of ten, with food and water ad libitum in temperature- and humidity-controlled holding rooms. The animals were allowed at least 7 days to acclimatize to the housing conditions before experiments. Each animal was used only once and killed immediately after the experiment by heart punctuation or a lethal overdose of pentobarbital sodium.\nGerbils were anaesthetized with isoflurane. Potential CNS-permeable NK1 receptor antagonists were administered intraperitoneally, intravenously or subcutaneously.\nThe gerbils were lightly anaesthetized using isoflurane and a small incision was made in the skin over bregma. 10 pmol of ASMSP, a selective NK1receptor agonist, was administered icv in a volume of 5 μl using a Hamilton syringe with a needle 4 mm long. The wound was clamped shut and the animal was placed in a small plastic cage and allowed to wake up. The cage was placed on a piece of plastic tubing filled with water and connected to a computer via a pressure transducer. The number of hind feet taps was recorded."}, "gerbil NK1r [3]": {"molecular_target": "T2, gerbil NK1r", "experiment": "Inhibition of NK1 receptor activation, intracellular Ca2+ mobilization (FLIPR) in CHO cells", "format": "cell-based", "parameters": "Full-length PCR was performed using primers #NK1-16 and #NK1-17; expressed in transfected cells", "conditions": "pKB ± SD, submaximal (60%) concentration of Substance P", "method": "as §1, §2"}, "human NK1r [4]": {"molecular_target": "T3, human NK1r (Homo sapiens, UniProt P25103)", "T3 sequence (P25103 whole entry)": "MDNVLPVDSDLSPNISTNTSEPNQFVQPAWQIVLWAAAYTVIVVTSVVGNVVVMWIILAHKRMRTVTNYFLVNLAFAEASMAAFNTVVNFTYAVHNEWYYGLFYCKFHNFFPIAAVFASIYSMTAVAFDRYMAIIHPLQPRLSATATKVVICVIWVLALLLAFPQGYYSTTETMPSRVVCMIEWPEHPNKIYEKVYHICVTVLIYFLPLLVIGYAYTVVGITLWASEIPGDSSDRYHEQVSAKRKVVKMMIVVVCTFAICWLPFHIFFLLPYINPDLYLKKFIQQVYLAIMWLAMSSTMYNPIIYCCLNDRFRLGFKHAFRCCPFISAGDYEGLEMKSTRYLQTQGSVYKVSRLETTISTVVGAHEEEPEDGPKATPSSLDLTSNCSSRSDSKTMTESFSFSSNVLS", "experimental": "Cells were detached with Accutase® solution, harvested in PBS containing 5% FBS by centrifugation, washed twice in PBS and resuspended to a concentration of 1×10^8 cells/ml in Tris-HCl 50 mM, KCl 300 mM, EDTA-N2 10 mM pH 7.4 (4° C.). Cell suspensions were homogenized with a UltraTurrax 30 s 12.000 rpm. The homogenates were centrifuged at 38,000×g (4° C.) and the pellet resuspended in Tris-HCl 50 mM pH 7.4. The homogenization was repeated once and the homogenates were incubated on ice for 45 min. The homogenates were again centrifuged as described above and resuspended in Tris-HCl 50 mM pH 7.4. This centrifugation step was repeated 3 times in total. […]\nas §3, §4"}, "human NK1r [5]": {"molecular_target": "T3, human NK1r", "experiment": "Inhibition of NK1 receptor activation, intracellular Ca2+ mobilization (FLIPR) in CHO cells", "format": "cell-based", "parameters": "expressed in transfected cells", "conditions": "pKB ± SD, submaximal (60%) concentration of Substance P", "method": "as §1\nCO2-incubator. The cells were then washed three times in assay buffer (Hanks balanced salt solution (HBSS) containing 20 mM HEPES, 2.5 mM Probenicid and 0.1% BSA) using a multi-channel pipette leaving them in 150 μl at the end of the last wash. […] 50 μl of the Substance P (NK1 specific), NKA (NK2 specific), or Pro-7-NKB (NK3 specific) agonist solution (final concentration equivalent to an approximate EC60 concentration) was then added by FLIPR into each well already containing 200 μl assay buffer (containing the test compound or vehicle) and the fluorescence was continuously monitored for another 2 min. The response was measured as the peak relative fluorescence after agonist addition and IC50s were calculated from ten-point concentration-response curves for each compound. The IC50s were then converted to pKB values with the following formula: KB=IC50/1+(EC60 conc. of agonist used in assay/EC50 agonist) pKB=−log KB Binding Assay for NK1 Receptors"}},
  "note": "Like-named read-outs stand apart in the source and are kept apart here.",
  "data": [
    {"smiles": "COc1ccccc1CN[C@H]1CCCN[C@H]1c1ccccc1", "note": "[CP 99994]", "values": [
      {"measurement": "Kb", "setting": "rat NK1r", "result": 1230, "unit": "nM"},
      {"measurement": "Ki", "setting": "gerbil NK1r [1]", "result": 0.81, "unit": "nM"},
      {"measurement": "gerbil NK1r pKBapp. (in vivo GFT apparent pKB)", "setting": "gerbil NK1r [2]", "result": 8.1},
      {"measurement": "Kb", "setting": "gerbil NK1r [3]", "result": 1.15, "unit": "nM"}
    ]},
    {"smiles": "C[C@@H](O[C@H]1OCCN(Cc2n[nH]c(=O)[nH]2)[C@H]1c1ccc(F)cc1)c1cc(C(F)(F)F)cc(C(F)(F)F)c1", "note": "[MK 869, aprepitant]", "values": [
      {"measurement": "Kb", "setting": "rat NK1r", "result": 55, "unit": "nM"},
      {"measurement": "Ki", "setting": "gerbil NK1r [1]", "result": 0.16, "unit": "nM"},
      {"measurement": "gerbil NK1r pKBapp. (in vivo GFT apparent pKB)", "setting": "gerbil NK1r [2]", "result": 8.9},
      {"measurement": "Kb", "setting": "gerbil NK1r [3]", "result": 1.55, "unit": "nM"}
    ]},
    {"smiles": "CN(C[C@@H](CCN1CCC(c2ccccc2[S@+](C)[O-])CC1)c1ccc(Cl)c(Cl)c1)C(=O)c1cc(C#N)cc2ccccc12", "note": "[ZD 6021]", "values": [
      {"measurement": "rat NK1r pKB", "setting": "rat NK1r", "result": "<6"},
      {"measurement": "Ki", "setting": "human NK1r [4]", "result": 0.31, "unit": "nM"},
      {"measurement": "Ki", "setting": "gerbil NK1r [1]; read-out: Gerbil NK1 Ki, competition binding, CHO cell membranes", "result": 0.38, "unit": "nM"},
      {"measurement": "gerbil NK1r pKBapp. (in vivo GFT apparent pKB)", "setting": "gerbil NK1r [2]", "result": 8.5},
      {"measurement": "gerbil NK1r pKB", "setting": "gerbil NK1r [3]", "result": "9.00 ± 0.25"},
      {"measurement": "human NK1r pKB", "setting": "human NK1r [5]", "result": "8.53 ± 0.41"}
    ]}
  ]
}
